Laboratory results from patent US20070060636A1, “High enantiomeric purity dexanabinol for pharmaceutical compositions” (priority 2002, published 2007).
Read-outs that look alike come from different tables or passages of the source.

Tests used:
[1] = toxicology studies, single and/or multiple i.v. doses; type: in vivo, rats, rabbits, and monkeys
Procedure: In order to support the i.v. testing of dexanabinol of high enantiomeric purity in humans, a series of acute single-dose and sub-chronic multiple dose toxicology studies were conducted to establish the safety profile of the compound in rats, rabbits, and monkeys. The 2-week and 4-week multidose studies included complete clinical and morphological evaluations. In vitro/in vivo mutagenicity studies and special toxicological evaluations have also been carried out to evaluate the safety profile of dexanabinol. The toxicology studies employed doses that were multiples of the proposed clinical doses.

[2] = 14-day multiple dose pharmacokinetic/toxicity study, rat; type: in vivo, rats; conditions: for AUC∞ Ratio to Phase I / Cmax Ratio to Phase I / AUC∞ Ratio to Phase II / Cmax Ratio to Phase II: 15 mg/kg Day 14; for AUC∞ Ratio to Phase I / Cmax Ratio to Phase I: vs human 150 mg Phase I; for AUC∞ Ratio to Phase II / Cmax Ratio to Phase II: vs human 150 mg Phase II
Procedure: The pharmacokinetics of dexanabinol of high enantiomeric purity formulated in CREMOPHOR EL®:ethanol as described in Example 4 were investigated in rats, rabbits, and monkeys following intravenous administration of single doses, and 14 and 28 days of repeated dosing. Human pharmacokinetics was studied during Phase I and Phase II clinical studies. Dexanabinol used in the pharmacokinetic studies was formulated as drug concentrates of 50 and 100 mg/ml and diluted with sterile 0.9% NaCl solution prior to intravenous (i.v.) administration to the desired final doses. Determination of dexanabinol concentrations in plasma and brain extracts was carried out using a validated Gas Chromatography-Mass Spectra (GC-MS) assay following solid phase extraction of the drug and derivatization. The limit of quantitation of the assay is 0.1 ng/ml.
Pharmacokinetic parameters were estimated by a non-compartmental method using WinNonlin Professional version 3.2 (Pharsight Corp., Mountain View, Calif.). The maximum plasma concentration (Cmax), when the drug is administered by infusion, is the concentration at the end of infusion. The Cmax following intravenous bolus administration is the value estimated by the software to be the concentration at t=0. The terminal slope (X) was estimated by linear regression through the last time points and used to calculate the terminal half-life (t1/2) from the following equation: t1/2=0.693/λ The area under the curve from time of dosing through the last time point (AUCz) was calculated by the linear trapezoid method. The AUC extrapolated to infinity (AUC∞) was calculated from the following equation: AUC∞=AUCz+Cz/λ where Cz is the concentration at the last time point predicted by the linear regression. AUC∞ was normalized for dose (mg/kg) and presented as AUC∞/Dose. Mean residence time (MRT), when the drug is administered by infusion is described by the following equation: MRT=(AUMC/AUC)−(TI)/2 Mean residence time after i.v. bolus administration is described by the following equation: MRT=(AUMC/AUC) where AUMC is the area under the first moment curve and TI is the length of infusion. Plasma clearance (CL), and the apparent volume of distribution at steady state (Vss) were calculated from the following equations: CL=Dose/AUC∞ Vss=MRT×CL
In 14-day multiple dose pharmacokinetic studies, the NOAEL was 15 mg/kg/day in rats and 25 mg/kg/day in rabbits. In a 28-day study in monkeys the NOAEL was 25 mg/kg/day. Cmax and AUC observed following the last dose at the NOAEL in the multiple dose toxicity studies and the ratios of these values to those observed in the Phase I and II studies for the 150 mg dose are shown in Table 7.

[3] = Phase II study, single i.v. dose in patients with severe head trauma; type: in vivo, human; conditions: human, plasma, iv, severe TBI patients, mean ± SE; for AUC / Cmax: up to 24 hr; for Vd: read-out: Vss
Procedure: (§1) A Phase II, double masked, multi-center study was conducted to evaluate the safety and tolerance of dexanabinol of high enantiomeric purity following a single intravenous administration in patients with severe head trauma (Knoller N. et al., Crit. Care Med. 30: 548-54, 2002). Treatment was administered within 6 hours of injury, based on the therapeutic window observed in relevant animal models. Additional objectives of the study were to evaluate the long-term outcome of the patients and to determine the optimal dose for Phase III studies.
(§2) Medical information was collected en route or upon arrival at the hospital to determine a patient's suitability for enrollment and a randomized patient number was assigned. Written informed consent was obtained from relatives, all eligible patients being in coma. Antihistamines (promethazine hydrochloride PHENERGAN® 25 mg and cimetidine 50 mg) were administered by intravenous bolus injection 15 minutes prior to study drug administration. Dexanabinol was manufactured and formulated as previously described (50 mg/ml in CREMOPHOR EL®:ethanol clinical formulation) and diluted into 100 ml saline prior to injection. Solutions of dexanabinol were infused intravenously using a peristaltic pump (Ivac) at a rate of 6 ml/min (or approximately 15 min/dose). The total doses of dexanabinol scheduled to be administered were 48, 150, or 200 mg per patient. Five milliliters of blood were removed (from the contralateral arm) at the end of the infusion, at 10 and 30 min, and at 1, 3, 6, 12, and 24 hours thereafter for determination of plasma dexanabinol concentrations. Pharmacokinetic parameters were estimated by non-compartmental methods (WinNonlin Professional version 3.2) up to 24 hr post-injection.
(§3) Primary end points included intracranial pressure (ICP), cardiovascular function (heart rate, mean arterial blood pressure, cerebral perfusion pressure and electrocardiogram), clinical laboratory tests, and adverse medical events. The clinical outcome was assessed by the Glasgow outcome scale throughout a six month follow-up period. The nature and incidence of adverse medical events were similar in all groups supporting the safety of dexanabinol of high enantiomeric purity. […] Dexanabinol is currently being tested in a Phase III clinical trial for TBI.

[4] = test system: severe traumatic brain injury (TBI); assay: as above; type: in vivo, human; conditions: for AUC∞/Dose: severe TBI patients, mean ± SE, normalized for dose (mg/kg)
Procedure: as §1, §2, §3

[5] = plasma, iv, rat female, 15 mg/kg i.v. daily, final dose Day 14 (NOAEL)
[6] = plasma, iv, rat male, 15 mg/kg i.v. daily, final dose Day 14 (NOAEL)
[7] = 48 mg single i.v. infusion (n = 10)
[8] = 150 mg single i.v. infusion (n = 20)
[9] = 200 mg single i.v. infusion (n = 21)

CCCCCCC(C)(C)c1cc(O)c2c(c1)OC(C)(C)[C@H]1CC=C(CO)C[C@H]21 [dexanabinol, 1,1-dimethylheptyl-(3S,4S)-7-hydroxy-Δ^6-tetrahydrocannabinol]
tolerability ([1]; CREMOPHOR EL:ethanol formulation, single and/or multiple i.v. doses in rats, rabbits and monkeys): generally well tolerated
psychomimetic side effect ([1]; at dose tested, any of the animal species tested): no psychomimetic side effect
AUC(0-inf) [2, 5]: 58600 ng·h/mL
Cmax at 14 days [2, 5]: 17400 ng/mL
AUC(0-inf) [2, 6]: 32700 ng·h/mL
Cmax [2, 6]: 30200 ng/mL
AUC∞ Ratio to Phase I ([2]; rat female): 18.3
Cmax Ratio to Phase I ([2]; rat female): 3.5
AUC∞ Ratio to Phase II ([2]; rat female): 39.5
Cmax Ratio to Phase II ([2]; rat female): 8.8
AUC∞ Ratio to Phase I ([2]; rat male): 10.2
Cmax Ratio to Phase I ([2]; rat male): 6.0
AUC∞ Ratio to Phase II ([2]; rat male): 22.1
Cmax Ratio to Phase II ([2]; rat male): 15.4
NOAEL at 14 days ([2]; rat, in vivo, iv, 14-day multiple dose i.v.): 15 mg/kg/day
AUC(0-inf) [3, 7]: 572 ng·h/mL
MRT [3, 7]: 4.1 ± 0.7 h
clearance [3, 7]: 22.6 ± 3.9 mL/min/kg
half-life [3, 7]: 7 ± 0.9 h
AUC [3, 7]: 548 ng·h/mL
Cmax [3, 7]: 1150 ng/mL
Vd [3, 7]: 6.6 ± 2.6 L/kg
AUC(0-inf) [3, 8]: 1480 ng·h/mL
MRT [3, 8]: 3.8 ± 0.4 h
clearance [3, 8]: 31 ± 5.8 mL/min/kg
half-life [3, 8]: 5.3 ± 0.5 h
AUC [3, 8]: 1450 ng·h/mL
Cmax [3, 8]: 1970 ng/mL
Vd [3, 8]: 7.5 ± 1.5 L/kg
AUC(0-inf) [3, 9]: 3250 ng·h/mL
MRT [3, 9]: 3.5 ± 0.3 h
clearance [3, 9]: 17.6 ± 1.9 mL/min/kg
half-life [3, 9]: 6.3 ± 0.3 h
AUC [3, 9]: 3170 ng·h/mL
Cmax [3, 9]: 5790 ng/mL
Vd [3, 9]: 4.2 ± 0.9 L/kg
AUC∞/Dose [4, 7]: 51,846 ± 5,526 ng × min/ml
AUC∞/Dose [4, 8]: 43,542 ± 4,329 ng × min/ml
AUC∞/Dose [4, 9]: 69,007 ± 5,835 ng × min/ml
neurological outcome ([4]; Glasgow outcome scale, six month follow-up): trend toward faster and better neurological outcome
Cmax Ratio to Phase II ([4]; human Phase II, 150 mg single i.v., reference itself): 1.0
safety in severe head injury ([4]; single i.v. 48, 150 or 200 mg within 6 hours of injury): safe and well tolerated
intracranial pressure/cerebral perfusion pressure control ([4]; treated patients, without jeopardizing blood pressure): significantly better
